Measured values: patent US12194082B2, “Compositions and methods for treatment of homocystinuria” (THE REGENTS OF THE UNIVERSITY OF COLORADO, priority 2016, dated 2025)

Assays:
Assay type in all cases: in vivo
Hcy, Cys, Cth, and Met = experiment: Metabolite levels in plasma and tissues of KO mice at 18-19 days of age
Experimental: Plasma metabolites homocysteine, cystathionine and cysteine were determined by stable-isotope-dilution liquid chromatography mass spectrometry as previously described in (Allen et al., 1993, Metabolism, 42: 1448-1460). Measurements of total non-protein bound homocysteine and other aminothiols as well as of amino acids in tissue were performed as described in (Maclean et al., 2010b. Mol. Genet. Metab. 101, 153-162). Metabolites were determined by stable-isotope-dilution liquid chromatography mass spectrometry.
Plasma and tissue metabolites were measured in the groups of wild-type mice (control), untreated homozygous −/− affected KO mice, and 400MA PEG-htCBS C15S-treated KO mice. The treated group was administered subcutaneous injections of 400MA PEG-htCBS C15S 3 times per week at a dose of 7.5 mg/kg from the age of 2 days. Plasma and tissues were harvested 24 hours after the last injection.

[1] = tested on: homocysteine, cystathionine, and cysteine; experiment: Long-term administration of PEGylated htCBS C15S conjugates in HO mice: plasma metabolites; details: 7.5 mg/kg/day SC, 5 daily injections per bout
Experimental: In one set of experiments, htCBS C15S PEGylated with either ME-200MA0B, ME-200GS, GL4-400MA, or ME-400MA was evaluated. Six groups of HO mice were used to conduct these studies: two groups received 200MA0B PEG-htCBS C15S (Groups 1 and 3), one group received 20NHS PEG-htCBS C15S (Group 4), one group received GL4-400MA PEG-htCBS C15S (Group 5), and two groups received 400MA PEG-htCBS C15S (Group 6 and 7). Both male and female HO mice were used (total n=6 to 8 mice per group) in these studies.
For Group 1, the mice received 2 bouts of 5 daily subcutaneous injections of 200MA0B PEG-htCBS C15S on days 1, 2, 3, 4, and 5 (week 1) and days 15, 16, 17, 18, and 19 (week 3). The dose for this experiment was 5 mg/kg/day. A saline control group (Group 2) was included in this experiment. All other groups received 3 bouts of 5 daily subcutaneous injections on days 1, 2, 3, 4, and 5 (week 1); days 15, 16, 17, 18, and 19 (week 3); and days 29, 30, 31, 32 and 33 (week 5). The dose for these experiments was 7.5 mg/kg/day.
In a separate set of experiments, htCBS C15S PEGylated with ME-200MA0B or ME050GS was evaluated. Two groups of male and female HO mice (1M/5F) received 3 bouts of 5 daily subcutaneous injections of either 200MA0B PEG-htCBS C15S (Group 8) or 050GS PEG-htCBS (Group 9) on days 1, 2, 3, 4, and 5 (week 1); days 15, 16, 17, 18, and 19 (week 3); and days 29, 30, 31, 32 and 33 (week 5). The dose was 7.5 mg/kg/day.
In all sets of experiments, each 5-day dosing cycle was followed by a 10-day “washout period”. Blood was sampled using a submandibular lancet on Monday, Wednesday, and Friday of the dosing weeks (1, 3, and 5) and on the first day (Monday) of each 10-day washout period. All blood sampling procedures and subcutaneous injections were conducted at 3 P.M. to avoid artifacts due to diurnal variations. On days where both blood sampling and injection were conducted the blood sampling procedure was conducted prior to enzyme administration.
The pharmacodynamic response in HO mice to each PEGylated htCBS C15S conjugate was assessed for each bout of dosing by quantitating plasma levels of metabolites homocysteine, cystathionine, and cysteine, which are associated with the transsulfuration pathway, at baseline and after treatment. Quantification was performed by stable-isotope-dilution liquid chromatography mass spectrometry (LC/MS) as described in Example 1. The maximal percent change of homocysteine, cystathionine, and cysteine was calculated compared to baseline values for each dose week.

Hcy, Cth, Cys = experiment: Plasma metabolites in KO mice of the DEXA study
Experimental: In 20NHS PEG-htCBS C15S-treated KO mice, the plasma levels of Hcy, Cth, and Cys were measured biweekly over the course of the study and are shown in FIG. 16F. […] The level of Cys (top line) normalized with the treatment from less than 100 μM at day […] to about 200 μM at day 45 and sustained over the course of the study. The level of Cth (bottom line) oscillated around 50 μM throughout the duration of the study.
Plasma metabolites were determined using the same mice/groups as described above. The end-point levels of metabolites Hcy, Cth, Cys, and Met were determined 24 hours after the last injection to the 20NHS PEG-htCBS C15S-treated KO mice (right bar for each metabolite) and compared with untreated healthy +/− (left bar) and affected −/− KO mice (middle bar), as shown in FIG. 16G. Table 20 provides the P-values used to determine significance for the differences in metabolite levels in the treated group compared to the two control groups.

[2] = 7.5 mg/kg SC 3x/week from day 2, 24 hours after last injection, mean ± SEM
[3] = 7.5 mg/kg SC 3x/week from day 2, mean ± SEM

With “20NHS PEG-htCBS C15S: htCBS C15S PEGylated with ME-200GS PEG (20 kDa linear NHS ester-activated PEG)” the Cystathionine in plasma (Hcy, Cys, Cth, and Met; [2]) was 133.2 ± 9.1 µM, the Cysteine in plasma (Hcy, Cys, Cth, and Met; [2]) was 211.7 ± 11.5 µM and the Homocysteine in plasma (Hcy, Cys, Cth, and Met; [2]) was 52.8 ± 6.8 µM. For the same substance, the Methionine in plasma (Hcy, Cys, Cth, and Met; [2]) was 99.2 ± 5.4 µM, the “Cystathionine in brain tissue” value (Hcy, Cys, Cth, and Met; [3]) was 8.5 ± 1.1 nmols/g and the “Cystathionine in kidney tissue” value (Hcy, Cys, Cth, and Met; [3]) was 256.0 ± 77.5 nmols/g. For the same substance, the “Cystathionine in liver tissue” value (Hcy, Cys, Cth, and Met; [3]) was 18.9 ± 1.8 nmols/g, the “Cysteine in brain tissue” value (Hcy, Cys, Cth, and Met; [3]) was 56.8 ± 3.0 nmols/g and the “Cysteine in kidney tissue” value (Hcy, Cys, Cth, and Met; [3]) was 282.8 ± 17.1 nmols/g. For the same substance, the “Cysteine in liver tissue” value (Hcy, Cys, Cth, and Met; [3]) was 205.2 ± 27.4 nmols/g, the “Homocysteine in brain tissue” value (Hcy, Cys, Cth, and Met; [3]) was 1.1 ± 0.1 nmols/g and the “Homocysteine in kidney tissue” value (Hcy, Cys, Cth, and Met; [3]) was 6.76 ± 4.42 nmols/g. For the same substance, the “Homocysteine in liver tissue” value (Hcy, Cys, Cth, and Met; [3]) was 22.4 ± 3.4 nmols/g, the “Methionine in brain tissue” value (Hcy, Cys, Cth, and Met; [3]) was 68.6 ± 4.7 nmols/g and the “Methionine in kidney tissue” value (Hcy, Cys, Cth, and Met; [3]) was 53.3 ± 2.9 nmols/g. For the same substance, the “Methionine in liver tissue” value (Hcy, Cys, Cth, and Met; [3]) was 25.5 ± 3.4 nmols/g, the “cystathionine, Percent Increase at Peak, Week 1” value [1] was 676% and the “cystathionine, Percent Increase at Peak, Week 3” value [1] was 492%. The “cystathionine, Percent Increase at Peak, Week 5” value [1] was 432%, the “cysteine, Percent increase at Peak, Week 1” value [1] was 59% and the “cysteine, Percent increase at Peak, Week 3” value [1] was 61%. For the same substance, the “cysteine, Percent increase at Peak, Week 5” value [1] was 51%, the “total Hcy, Percent Decrease at Trough, Week 1” value [1] was 77% and the “total Hcy, Percent Decrease at Trough, Week 3” value [1] was 70%. For the same substance, the “total Hcy, Percent Decrease at Trough, Week 5” value [1] was 66%, the “total Hcy, Percent Decrease at Trough, Week 1” value ([1]; listed as ME-200GS) was 77% and the “total Hcy, Percent Decrease at Trough, Week 3” value ([1]; listed as ME-200GS) was 70%. The “total Hcy, Percent Decrease at Trough, Week 5” value ([1]; listed as ME-200GS) was 66%, the “plasma Hcy” value (Hcy, Cth, Cys; during treatment, from about 180 μM) was “about 90 μM” and the “plasma Cys” value (Hcy, Cth, Cys; during treatment, from less than 100 μM) was “about 200 μM”. For the same substance, the “plasma Cth” value (Hcy, Cth, Cys; throughout the study) was “around 50 μM”.
